Where a SMILES comes first, the peptide text is derived from it. [ ]: non-standard residue; d: D form.
Biological target: T1, human SCTR (Homo sapiens, UniProt P47872)
Experiment: GloSensor cAMP assay, agonist mode
Type: cell-based
Parameters: expressed in transfected cells
Details: GloSensor cAMP assay; at least 3 independent experiments in duplicates; read-out: cAMP Production, Intrinsic Activity
Protocol: Analysis of downstream signaling of activated SCTR via Gαs G-protein subunits was performed by monitoring intracellular cAMP utilizing the GloSensor system (Promega, Walldorf, Germany) in accordance with the supplier protocol. Measurements were performed using the EnVision Analyzer (PerkinElmer, Rodgau, Germany). For evaluation, concentration–response curves (signal-to-noise ratios plotted) employing the derived statistical mean and SD for estimation of the respective EC50 were calculated using Spotfire Decision Site (TIBCO, Palo Alto, CA, USA). For the analysis of antagonists, a modified protocol was used. Treatment of cells and dilution of the potential antagonist was performed as previously described. Ligand dilutions were added to cells and incubated at room temperature for 5 min. Successively, secretin was added at a final concentration of 0.5 nM for an additional 15 min at room temperature. The emitted chemiluminescence, which correlates with the cAMP concentration, was detected with suitable filters. Evaluation of data was performed as previously described with a calculation of half-maximal inhibitory concentration (IC50).

T1 sequence (P47872 23-440): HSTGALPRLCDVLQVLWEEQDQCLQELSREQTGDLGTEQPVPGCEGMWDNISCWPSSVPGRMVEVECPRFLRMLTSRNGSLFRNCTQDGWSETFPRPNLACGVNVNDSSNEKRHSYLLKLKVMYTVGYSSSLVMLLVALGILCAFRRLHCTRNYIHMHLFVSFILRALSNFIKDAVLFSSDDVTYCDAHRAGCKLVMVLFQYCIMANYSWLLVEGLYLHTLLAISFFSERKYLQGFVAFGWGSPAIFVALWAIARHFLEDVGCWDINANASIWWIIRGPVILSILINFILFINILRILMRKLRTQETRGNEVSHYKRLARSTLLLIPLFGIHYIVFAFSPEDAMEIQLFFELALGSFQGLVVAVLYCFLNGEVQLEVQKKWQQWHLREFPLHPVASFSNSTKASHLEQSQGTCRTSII

Emax [%]	SMILES
33.6 ± 0.9	CC(C)C[C@H](NC(=O)CNC(=O)[C@H](CCC(N)=O)NC(=O)[C@H](CC(C)C)NC(=O)[C@H](CC(C)C)NC(=O)[C@H](CCCNC(=N)N)NC(=O)[C@H](CCC(N)=O)NC(=O)[C@H](CC(C)C)NC(=O)[C@H](CCCNC(=N)N)NC(=O)[C@H](C)NC(=O)[C@H](C)NC(=O)[C@H](CCC(=O)O)NC(=O)[C@H](CCCNC(=N)N)NC(=O)[C@H](CC(C)C)NC(=O)[C@H](CCCNC(=N)N)NC(=O)[C@H](CO)NC(=O)[C@H](CC(C)C)NC(=O)[C@H](CCC(=O)O)NC(=O)[C@H](CO)NC(=O)[C@@H](NC(=O)[C@H](Cc1ccccc1)NC(=O)[C@H](N)CCCNC(=N)N)[C@@H](C)O)C(=O)N[C@H](C(=O)O)C(C)C [Peptide 136]

Biological target: T1, human SCTR
Experiment: β-arr2-GFP translocation assay run in antagonist mode; for IC50, inhibition of β-arr2-GFP translocation (Table 3): peptide 5 min at 37 °C
Type: cell-based
Parameters: expressed in transfected cells; host or cells: U2OS (human osteosarcoma), stably co-transfected with β-arrestin2-GFP
Details: read-out: IC50, inhibition of β-arr2-GFP translocation (Table 2)
Description: U2OS-SCTR/β-arr2-GFP: human osteosarcoma cell line U2OS (purchased from ATCC/LGC Standards, Wesel, Germany) were stably transfected with plasmids encoding SCTR (Homo sapiens) and the fusion protein β-arrestin2-green fluorescent protein (GFP) (Rattus norvegicus-Aequorea victoria) (β-arr2-GFP).
For analysis of antagonistic effects on SCTR, a slightly modified protocol of the β-arr2-GFP translocation was used. […] For analysis, cells were terminally fixed and permeabilized as previously described. The additional monitoring of IDCC fluorescence in the near-infrared channel (667 nm) provided another measure for receptor binding and activation.

IC50 [µM]	SMILES
2.34 ± 0.366	CC(C)C[C@H](NC(=O)CNC(=O)[C@H](CCC(N)=O)NC(=O)[C@H](CC(C)C)NC(=O)[C@H](CC(C)C)NC(=O)[C@H](CCCNC(=N)N)NC(=O)[C@H](CCC(N)=O)NC(=O)[C@H](CC(C)C)NC(=O)[C@H](CCCNC(=N)N)NC(=O)[C@H](C)NC(=O)CNC(=O)[C@H](CCC(=O)O)NC(=O)[C@H](CCCNC(=N)N)NC(=O)[C@H](CC(C)C)NC(=O)[C@H](CCCNC(=N)N)NC(=O)[C@H](CO)NC(=O)[C@H](CC(C)C)NC(=O)[C@H](CCC(=O)O)NC(=O)[C@H](CO)NC(=O)[C@@H](NC(=O)[C@@H](N)Cc1ccccc1)[C@@H](C)O)C(=O)N[C@H](C(=O)O)C(C)C [Peptide 119]

Same assay, conditions: read-out: IC50, inhibition of β-arr2-GFP translocation (Table 3)

SMILES	IC50 [µM]
CC(C)C[C@H](NC(=O)CNC(=O)[C@H](CCC(N)=O)NC(=O)[C@H](CC(C)C)NC(=O)[C@H](CC(C)C)NC(=O)[C@H](CCCNC(=N)N)NC(=O)[C@H](CCC(N)=O)NC(=O)[C@H](CC(C)C)NC(=O)[C@H](CCCNC(=N)N)NC(=O)[C@H](C)NC(=O)CNC(=O)[C@H](CCC(=O)O)NC(=O)[C@H](CCCNC(=N)N)NC(=O)[C@H](CC(C)C)NC(=O)[C@H](CCCNC(=N)N)NC(=O)[C@H](CO)NC(=O)[C@H](CC(C)C)NC(=O)[C@H](CCC(=O)O)NC(=O)[C@H](CO)NC(=O)[C@H](C)NC(=O)[C@H](Cc1ccccc1)NC(=O)[C@H](N)CCCNC(=N)N)C(=O)N[C@H](C(=O)O)C(C)C [Peptide 127]	1.61 ± 0.185
CC(C)C[C@H](NC(=O)CNC(=O)[C@H](CCC(N)=O)NC(=O)[C@H](CC(C)C)NC(=O)[C@H](CC(C)C)NC(=O)[C@H](CCCNC(=N)N)NC(=O)[C@H](CCC(N)=O)NC(=O)[C@H](CC(C)C)NC(=O)[C@H](CCCNC(=N)N)NC(=O)[C@H](C)NC(=O)CNC(=O)[C@H](CCC(=O)O)NC(=O)[C@H](CCCNC(=N)N)NC(=O)[C@H](CC(C)C)NC(=O)[C@H](C)NC(=O)[C@H](CO)NC(=O)[C@H](CC(C)C)NC(=O)[C@H](CCC(=O)O)NC(=O)[C@H](CO)NC(=O)[C@@H](NC(=O)[C@H](Cc1ccccc1)NC(=O)[C@H](N)CCCNC(=N)N)[C@@H](C)O)C(=O)N[C@H](C(=O)O)C(C)C [Peptide 132] (H-[dR]FTSELSALREGARLQRLLQGLV-OH)	2.48 ± 0.579
CC(C)C[C@H](NC(=O)CNC(=O)[C@H](CCC(N)=O)NC(=O)[C@H](CC(C)C)NC(=O)[C@H](CC(C)C)NC(=O)[C@H](CCCNC(=N)N)NC(=O)[C@H](CCC(N)=O)NC(=O)[C@H](CC(C)C)NC(=O)[C@H](C)NC(=O)[C@H](C)NC(=O)CNC(=O)[C@H](CCC(=O)O)NC(=O)[C@H](CCCNC(=N)N)NC(=O)[C@H](CC(C)C)NC(=O)[C@H](CCCNC(=N)N)NC(=O)[C@H](CO)NC(=O)[C@H](CC(C)C)NC(=O)[C@H](CCC(=O)O)NC(=O)[C@H](CO)NC(=O)[C@@H](NC(=O)[C@H](Cc1ccccc1)NC(=O)[C@H](N)CCCNC(=N)N)[C@@H](C)O)C(=O)N[C@H](C(=O)O)C(C)C [Peptide 137] (H-[dR]FTSELSRLREGAALQRLLQGLV-OH)	1.86 ± 0.159
CC(C)C[C@H](NC(=O)CNC(=O)[C@H](CCC(N)=O)NC(=O)[C@H](CC(C)C)NC(=O)[C@H](CC(C)C)NC(=O)[C@H](CCCNC(=N)N)NC(=O)[C@H](CCC(N)=O)NC(=O)[C@H](CC(C)C)NC(=O)[C@H](CCCNC(=N)N)NC(=O)[C@H](C)NC(=O)CNC(=O)[C@H](CCC(=O)O)NC(=O)[C@H](CCCNC(=N)N)NC(=O)[C@H](CC(C)C)NC(=O)[C@H](CCCNC(=N)N)NC(=O)[C@H](CO)NC(=O)[C@H](CC(C)C)NC(=O)[C@H](CCC(=O)O)NC(=O)[C@H](CO)NC(=O)[C@@H](NC(=O)[C@H](Cc1ccccc1)NC(=O)[C@H](N)CCCNC(=N)N)[C@@H](C)O)C(=O)N[C@H](C(=O)O)C(C)C [Peptide 125]	1.36 ± 0.322

Further lines, results first:

IC50 [µM]	SMILES
1.02 ± 0.107	CC(C)C[C@H](NC(=O)CNC(=O)[C@H](CCC(N)=O)NC(=O)[C@H](CC(C)C)NC(=O)[C@H](CC(C)C)NC(=O)[C@H](CCCNC(=N)N)NC(=O)[C@H](C)NC(=O)[C@H](CC(C)C)NC(=O)[C@H](CCCNC(=N)N)NC(=O)[C@H](C)NC(=O)CNC(=O)[C@H](CCC(=O)O)NC(=O)[C@H](CCCNC(=N)N)NC(=O)[C@H](CC(C)C)NC(=O)[C@H](CCCNC(=N)N)NC(=O)[C@H](CO)NC(=O)[C@H](CC(C)C)NC(=O)[C@H](CCC(=O)O)NC(=O)[C@H](CO)NC(=O)[C@@H](NC(=O)[C@H](Cc1ccccc1)NC(=O)[C@H](N)CCCNC(=N)N)[C@@H](C)O)C(=O)N[C@H](C(=O)O)C(C)C [Peptide 139] (H-[dR]FTSELSRLREGARLARLLQGLV-OH)
0.998 ± 0.142	CC(C)C[C@H](NC(=O)CNC(=O)[C@H](CCC(N)=O)NC(=O)[C@H](CC(C)C)NC(=O)[C@H](CC(C)C)NC(=O)[C@H](CCCNC(=N)N)NC(=O)[C@H](CCC(N)=O)NC(=O)[C@H](CC(C)C)NC(=O)[C@H](CCCNC(=N)N)NC(=O)[C@H](C)NC(=O)CNC(=O)[C@H](CCC(=O)O)NC(=O)[C@H](CCCNC(=N)N)NC(=O)[C@H](CC(C)C)NC(=O)[C@H](CCCNC(=N)N)NC(=O)[C@H](C)NC(=O)[C@H](CC(C)C)NC(=O)[C@H](CCC(=O)O)NC(=O)[C@H](CO)NC(=O)[C@@H](NC(=O)[C@H](Cc1ccccc1)NC(=O)[C@H](N)CCCNC(=N)N)[C@@H](C)O)C(=O)N[C@H](C(=O)O)C(C)C [Peptide 131] (H-[dR]FTSELARLREGARLQRLLQGLV-OH)
0.884 ± 0.169	CC(C)C[C@H](NC(=O)CNC(=O)[C@H](CCC(N)=O)NC(=O)[C@H](CC(C)C)NC(=O)[C@H](CC(C)C)NC(=O)[C@H](CCCNC(=N)N)NC(=O)[C@H](CCC(N)=O)NC(=O)[C@H](CC(C)C)NC(=O)[C@H](CCCNC(=N)N)NC(=O)[C@H](C)NC(=O)CNC(=O)[C@H](CCC(=O)O)NC(=O)[C@H](CCCNC(=N)N)NC(=O)[C@H](C)NC(=O)[C@H](CCCNC(=N)N)NC(=O)[C@H](CO)NC(=O)[C@H](CC(C)C)NC(=O)[C@H](CCC(=O)O)NC(=O)[C@H](CO)NC(=O)[C@@H](NC(=O)[C@H](Cc1ccccc1)NC(=O)[C@H](N)CCCNC(=N)N)[C@@H](C)O)C(=O)N[C@H](C(=O)O)C(C)C [Peptide 133] (H-[dR]FTSELSRAREGARLQRLLQGLV-OH)
0.897 ± 0.108	CC(C)C[C@H](NC(=O)CNC(=O)[C@H](CCC(N)=O)NC(=O)[C@H](CC(C)C)NC(=O)[C@H](CC(C)C)NC(=O)[C@H](CCCNC(=N)N)NC(=O)[C@H](CCC(N)=O)NC(=O)[C@H](CC(C)C)NC(=O)[C@H](CCCNC(=N)N)NC(=O)[C@H](C)NC(=O)CNC(=O)[C@H](CCC(=O)O)NC(=O)[C@H](CCCNC(=N)N)NC(=O)[C@H](CC(C)C)NC(=O)[C@H](CCCNC(=N)N)NC(=O)[C@H](CO)NC(=O)[C@H](CC(C)C)NC(=O)[C@H](CCC(=O)O)NC(=O)[C@H](C)NC(=O)[C@@H](NC(=O)[C@H](Cc1ccccc1)NC(=O)[C@H](N)CCCNC(=N)N)[C@@H](C)O)C(=O)N[C@H](C(=O)O)C(C)C [Peptide 128] (H-[dR]FTAELSRLREGARLQRLLQGLV-OH)
1.14 ± 0.281	CC(C)C[C@H](NC(=O)CNC(=O)[C@H](CCC(N)=O)NC(=O)[C@H](CC(C)C)NC(=O)[C@H](CC(C)C)NC(=O)[C@H](CCCNC(=N)N)NC(=O)[C@H](CCC(N)=O)NC(=O)[C@H](CC(C)C)NC(=O)[C@H](CCCNC(=N)N)NC(=O)[C@H](C)NC(=O)CNC(=O)[C@H](CCC(=O)O)NC(=O)[C@H](CCCNC(=N)N)NC(=O)[C@H](CC(C)C)NC(=O)[C@H](CCCNC(=N)N)NC(=O)[C@H](CO)NC(=O)[C@H](CC(C)C)NC(=O)[C@H](C)NC(=O)[C@H](CO)NC(=O)[C@@H](NC(=O)[C@H](Cc1ccccc1)NC(=O)[C@H](N)CCCNC(=N)N)[C@@H](C)O)C(=O)N[C@H](C(=O)O)C(C)C [Peptide 129] (H-[dR]FTSALSRLREGARLQRLLQGLV-OH)
0.924 ± 0.237	CC(C)C[C@H](NC(=O)CNC(=O)[C@H](CCC(N)=O)NC(=O)[C@H](CC(C)C)NC(=O)[C@H](CC(C)C)NC(=O)[C@H](CCCNC(=N)N)NC(=O)[C@H](CCC(N)=O)NC(=O)[C@H](CC(C)C)NC(=O)[C@H](CCCNC(=N)N)NC(=O)[C@H](C)NC(=O)CNC(=O)[C@H](CCC(=O)O)NC(=O)[C@H](CCCNC(=N)N)NC(=O)[C@H](CC(C)C)NC(=O)[C@H](CCCNC(=N)N)NC(=O)[C@H](CO)NC(=O)[C@H](CC(C)C)NC(=O)[C@H](CCC(=O)O)NC(=O)[C@H](CO)NC(=O)[C@@H](NC(=O)[C@H](Cc1ccccc1)NC(=O)[C@@H](N)CCCNC(=N)N)[C@@H](C)O)C(=O)N[C@H](C(=O)O)C(C)C [Peptide 124]

Source: article PMC8944975, “Secretin Receptor as a Target in Gastrointestinal Cancer: Expression Analysis and Ligand Development” (Biomedicines, 2022)
